Experimental data reported in ChEMBL document CHEMBL3758164, “Identification of new SUMO activating enzyme 1 inhibitors using virtual screening and scaffold hopping” (Bioorg Med Chem Lett, 2016).

Key:
[1] = biological target: T1, SUMO-activating enzyme subunit 1 (Homo sapiens) (UniProt Q9UBE0); assay: Inhibition of recombinant GST-fused SUMO E1 (unknown origin) using RanGAP1 as substrate at 20 uM after 2 hrs by immunoblot analysis; conditions: values are per cent of control
T1 sequence (whole entry): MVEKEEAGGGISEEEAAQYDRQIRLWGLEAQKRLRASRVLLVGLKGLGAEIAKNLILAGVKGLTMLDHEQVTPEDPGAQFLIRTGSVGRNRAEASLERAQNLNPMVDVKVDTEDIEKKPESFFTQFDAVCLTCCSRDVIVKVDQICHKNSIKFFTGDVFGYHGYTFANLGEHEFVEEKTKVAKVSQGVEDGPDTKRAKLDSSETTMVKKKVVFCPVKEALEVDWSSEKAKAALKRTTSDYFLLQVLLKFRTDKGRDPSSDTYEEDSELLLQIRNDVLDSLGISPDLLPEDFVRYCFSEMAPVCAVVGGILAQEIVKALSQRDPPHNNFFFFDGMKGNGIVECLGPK

[2] = biological target: T1, SUMO-activating enzyme subunit 1 (Homo sapiens); assay: Inhibition of recombinant GST-fused SUMO E1 (unknown origin) using RanGAP1 as substrate at 100 uM after 2 hrs by immunoblot analysis; conditions: values are per cent of control
[3] = biological target: T2, SUMO-activating enzyme subunit 1 (Homo sapiens, UniProt Q9UBE0); assay: (§1) Inhibition of recombinant GST-fused SUMO E1 (unknown origin) using RanGAP1 as substrate after 2 hrs by immunoblot analysis
T2 sequence (Q9UBE0 whole entry): T1 sequence (whole entry)

[4] = biological target: T1, SUMO-activating enzyme subunit 1 (Homo sapiens); assay: as §1

SMILES	residual activity [1]	residual activity [2]	IC50 [3]	inhibition [4]
COc1ccc(NC(=O)Nc2nc3c(ccc4ccccc43)s2)cc1	84.7%	10.3%	–	–
COc1ccc(NC(=O)Nc2nc(-c3ccc(OC)c(OC)c3)cs2)cc1	92%	68.7%	–	–
COc1ccccc1NC(=O)Nc1cc(C(C)(C)C)nn1-c1ccccc1	99.6%	53.2%	–	–
COc1cc(NC(=O)Nc2nc3cc(C)c(C)cc3s2)cc(OC)c1OC	94.8%	96%	–	–
CCOC(=O)c1sc(NC(=O)Nc2ccc(Cl)c(Cl)c2)nc1C	53.8%	0.7%	–	–
COc1cc(C)ccc1NC(=O)Nc1cn(-c2ccccc2)nc1-c1ccc(OC)c(OC)c1	88.9%	57.5%	–	–
COc1cccc(NC(=O)Nc2cc(C)nn2-c2ccc(F)cc2)c1	96%	96.4%	–	–
Cc1cc(=O)[nH]c(-n2nc(-c3ccccc3)cc2NC(=O)Nc2ccc3c(c2)OCO3)n1	57.7%	3.99%	30.4 µM	–
Cc1ccc(S(=O)(=O)NC(=O)Nc2nc(-c3ccc(C)c(Cl)c3)c(C)s2)cc1	79.3%	0.68%	–	–
Cc1ccc(-c2nc(NC(=O)Nc3ccc(OCc4ccccc4)cc3)sc2C)cc1Cl	64.8%	31.6%	–	–
O=C(Nc1cccc(Cl)c1)Nc1nc2c(ccc3ccccc32)s1	69.3%	0.02%	–	–
Cn1nc(C(C)(C)C)cc1NC(=O)Nc1ccc(OCc2ccccc2)cc1	92.9%	97.3%	–	–
COc1ccc(NC(=O)Nc2nc(-c3ccc(C)c(Cl)c3)c(C)s2)cc1OC1CCCC1	39.8%	13%	92.6 µM	Dose-dependent effect
COc1ccc(NC(=O)Nc2nc(-c3ccccc3)c(C(C)=O)s2)cc1OC	86%	13.7%	–	–
CCOc1ccc(NC(=O)Nc2nc(-c3ccccc3)c(C)s2)cc1	76.7%	43.9%	–	–
COc1ccc(NC(=O)Nc2cc(C)nn2C2CCCC2)cc1	93.7%	103%	–	–
Cc1ccc(-c2nc(NC(=O)Nc3cccc(Cl)c3)sc2C)cc1	88.5%	45.6%	–	–
COc1ccc(NC(=O)Nc2nc3cc(C)c(C)cc3s2)cc1OC	94.6%	76.6%	–	–
O=C(Nc1ccc(OCc2ccccc2)cc1)Nc1cc(-c2ccccc2)nn1-c1ccccc1	86.3%	13.3%	–	–
COc1cc(NC(=O)Nc2nc(-c3nc4ccccc4s3)cs2)cc(OC)c1OC	37.6%	3.96%	33.2 µM	Dose-dependent effect

More lines, now with the values ahead:

residual activity [1]	residual activity [2]	IC50 [3]	inhibition [4]	SMILES
55.2%	1.88%	13.8 µM	–	CCc1cc(=O)[nH]c(-n2nc(-c3ccccc3)cc2NC(=O)Nc2ccc(C(C)(C)C)cc2)n1
76.8%	45.3%	–	–	COc1cc(NC(=O)Nc2nc(-c3cc4ccccc4o3)cs2)cc(OC)c1OC
97.7%	95.4%	–	–	COc1ccc(NC(=O)Nc2cc(C)nn2-c2ccc(F)cc2)cc1
36.7%	5.69%	> 100 µM	–	CCc1cc(=O)[nH]c(-n2nc(-c3ccccc3)cc2NC(=O)Nc2ccc3c(c2)OCO3)n1
102%	95.2%	–	–	COc1ccccc1NC(=O)Nc1cc(C(C)(C)C)nn1C
100%	101%	–	–	COc1cccc(NC(=O)Nc2cc(C)nn2C2CCCC2)c1
96.6%	91.9%	–	–	COc1cccc(NC(=O)Nc2nc(C)c(C(C)=O)s2)c1
98.1%	103%	–	–	CCc1c(C)nc(-n2nc(C)cc2NC(=O)Nc2cccc(OC)c2)[nH]c1=O
60.8%	0.01%	–	–	COc1cc(NC(=O)Nc2nc(-c3ccc(Cl)s3)cs2)cc(OC)c1OC
65.6%	41.4%	–	–	Cc1ccc(-c2nc(NC(=O)Nc3ccccc3)sc2C)cc1Cl
91.5%	95.8%	–	–	Cc1sc(NC(=O)Nc2ccc(Cl)cc2)nc1-c1ccccc1
72%	3%	–	–	Cn1nc(-c2ccccc2)cc1NC(=O)Nc1ccc(OCc2ccccc2)cc1
105%	93.3%	–	–	COc1ccc(NC(=O)Nc2nc(C)c(C(C)=O)s2)cc1
99.3%	83.5%	–	–	COc1cc(NC(=O)Nc2nc3c(OC)ccc(C)c3s2)cc(OC)c1OC
82.3%	26.8%	–	–	CCc1cc(=O)[nH]c(-n2nc(-c3ccccc3)cc2NC(=O)Nc2cc(OC)cc(OC)c2)n1
88.1%	80%	–	–	COc1ccccc1NC(=O)Nc1nc(-c2ccc(OC)c(OC)c2)cs1
–	–	13.4 µM	–	COc1ccc(NC(=O)Nc2ccc(Oc3ncnc4cc(Cl)ccc34)nc2)cc1OC1CCCC1
65.6%	11.8%	–	–	CCc1cc(=O)[nH]c(-n2nc(-c3ccccc3)cc2NC(=O)Nc2ccc(OC)cc2)n1
91.8%	20.6%	–	–	Cc1ccc(-c2nc(NC(=O)Nc3ccc(Cl)cc3)sc2C)cc1
73.4%	1.99%	–	–	Cn1nc(-c2ccc(Cl)cc2)cc1NC(=O)Nc1ccc(OCc2ccccc2)cc1
93.9%	94.8%	–	–	Cc1ccc(-c2nc(NC(=O)Nc3ccc(F)cc3)sc2C)cc1Cl
57.5%	16%	73 µM	–	COc1cc(NC(=O)Nc2cc(-c3ccccc3)nn2-c2nc(C)cc(=O)[nH]2)cc(OC)c1
